Reference: patent EP4703359A1 (Shanghai Simr Biotechnology Co., Ltd., priority 2023, dated 2024)
Where a name gives a salt, the structure may show the parent alone. Read-outs that look alike come from different tables or passages of the source.

Molecular target: T1, α2-GABAA receptor (Homo sapiens, UniProt P18507+P47869)
T1 construct: expressed in transfected cells
Assay: Whole-cell patch-clamp electrophysiology, positive allosteric modulatory activity in α2-GABAAR-HEK293 cells
Format: cell-based
Conditions: for Emax at 0.1 µM: read-out: α2-GABAAR Positive allosteric modulatory activity
Text: The α subunit, β subunit, and γ subunit are indispensable for forming a fully functional GABAA receptor. In this example, HEK293 cells stably expressing α2-GABAA receptors (α2-GABAAR) were constructed and screened respectively via liposome transfection (Felgner, P.L., et al. Proceedings of the National Academy of Sciences, 1987, 84: 7413-7417). The α2-GABAAR-HEK293 cell model co-expresses the α2 subunit (protein sequence referenced under GenBank accession number: NM_000807.4), β3 subunit (protein sequence referenced under GenBank accession number: NM_000814.5), and γ2 subunit (protein sequence referenced under GenBank accession number: NM_000816.3).
The above cell lines were subcultured. α2-GABAAR-HEK293 cells were amplified for testing the affinity of compounds to the benzodiazepine (BZD) site of GABAA receptors. Some of the α2-GABAAR-HEK293 cells in suspension during subculturing were plated on glass slides pre-treated with Poly-D-Lysine for electrophysiological testing (method reference: Patent CN 107344936 A, paragraph 0586).
The positive modulatory activity of the test drug on the α2-GABAA receptor was assessed using electrophysiological methods. The specific approach is as follows:
With regards to the concentration of the compound, the final concentration of all compounds used in the screening was 100 nM. For cell lines expressing α2-GABAA receptors, the GABA concentration was 0.10 to 0.11 µM (approximately EC7-8). Electrophysiological experiments were conducted using the whole-cell patch-clamp technique, which can be referenced to the method reported in the literature (Nickolls, S. A., et al. *British Journal of Pharmacology*, 2018, 175: 708-725). The composition of the extracellular solution (ECS) for electrophysiology was as follows: 150 mM NaCl, 5 mM KCl, 2.5 mM CaCl2, 1 mM MgCl2, 10 mM HEPES, and 10 mM glucose (pH 7.4). The intracellular solution (ICS) for electrophysiology was formulated as follows: 140 mM CsCl, 11 mM EGTA, 10 mM HEPES, 2 mM CaCl2, 1 mM MgCl2, 4 mM MgATP, and 2 mM TEA (pH 7.3). GABA (γ-aminobutyric acid) powder was dissolved in pure water to prepare a stock solution, which was subsequently diluted in ECS. The compound was initially dissolved in dimethyl sulfoxide to prepare a 4 mM stock solution, followed by stepwise dilution into GABA-ECS at corresponding concentrations. All solutions were freshly prepared prior to electrophysiological testing.
Electrophysiological signals were acquired using an EPC 10 amplifier and PatchMaster software (HEKA) or an Axon 700B amplifier and Clampex software (AXON). The recording electrode was pulled from borosilicate glass, with an electrode resistance of 4 to 6 MΩ. Extracellular administration was performed using the ALA-VC-8PG™ system. A single independently growing cell was selected. After forming a tight seal between the glass electrode and the cell membrane, the membrane was ruptured to establish the whole-cell configuration. The cell membrane potential was clamped at -60 mV and recorded in Gap-free mode. During the test, extracellular fluid was first applied externally for approximately 20 seconds. After the baseline (Iprebaseline) was stabilized, the extracellular solution was switched to GABA-ECS. At this point, the current induced by GABA (Igaba) can be detected. After approximately 10 to 20 seconds, once the current had stabilized, the extracellular solution was switched to a mixture of the compound and GABA-ECS until the current induced by both the compound and GABA (Itreatment) could be detected. Finally, the solution was switched to extracellular fluid, and the recording was terminated after 20 to 40 seconds. Only cells with a stable baseline, an absolute control current magnitude (Igaba - Iprebaseline) greater than 40 pA, and a relatively stable current within 10 to 20 seconds were used for compound testing. […]

[1] = compound 100 nM, GABA 0.10 to 0.11 µM (approximately EC7-8), normalized to reference compound CVL-865 (= 100%)

T1 sequence (P47869 29-451): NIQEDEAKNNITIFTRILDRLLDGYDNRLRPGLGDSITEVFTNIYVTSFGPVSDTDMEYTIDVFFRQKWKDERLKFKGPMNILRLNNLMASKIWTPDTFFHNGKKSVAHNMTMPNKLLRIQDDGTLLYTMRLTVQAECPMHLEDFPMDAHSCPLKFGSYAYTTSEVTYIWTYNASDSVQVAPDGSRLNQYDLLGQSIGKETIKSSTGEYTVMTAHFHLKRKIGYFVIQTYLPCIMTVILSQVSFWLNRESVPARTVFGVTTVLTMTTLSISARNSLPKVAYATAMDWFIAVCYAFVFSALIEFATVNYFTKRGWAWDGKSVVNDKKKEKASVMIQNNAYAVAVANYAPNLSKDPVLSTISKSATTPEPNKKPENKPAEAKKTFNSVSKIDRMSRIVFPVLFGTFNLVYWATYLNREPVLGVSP
T1 sequence (P18507 40-467 isoform P18507-1 limits assumed): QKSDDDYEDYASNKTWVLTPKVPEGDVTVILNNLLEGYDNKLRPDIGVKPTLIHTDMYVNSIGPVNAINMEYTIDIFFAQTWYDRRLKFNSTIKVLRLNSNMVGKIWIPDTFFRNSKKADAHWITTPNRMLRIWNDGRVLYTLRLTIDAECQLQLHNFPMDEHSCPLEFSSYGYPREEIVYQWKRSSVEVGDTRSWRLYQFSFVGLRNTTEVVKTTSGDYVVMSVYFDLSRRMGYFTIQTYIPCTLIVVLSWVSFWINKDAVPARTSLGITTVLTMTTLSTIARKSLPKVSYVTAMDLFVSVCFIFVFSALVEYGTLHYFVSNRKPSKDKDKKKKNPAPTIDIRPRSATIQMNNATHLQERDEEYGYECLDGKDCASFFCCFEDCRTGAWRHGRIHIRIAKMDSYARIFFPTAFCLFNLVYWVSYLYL
T1 sequence (P28472 26-473 partner): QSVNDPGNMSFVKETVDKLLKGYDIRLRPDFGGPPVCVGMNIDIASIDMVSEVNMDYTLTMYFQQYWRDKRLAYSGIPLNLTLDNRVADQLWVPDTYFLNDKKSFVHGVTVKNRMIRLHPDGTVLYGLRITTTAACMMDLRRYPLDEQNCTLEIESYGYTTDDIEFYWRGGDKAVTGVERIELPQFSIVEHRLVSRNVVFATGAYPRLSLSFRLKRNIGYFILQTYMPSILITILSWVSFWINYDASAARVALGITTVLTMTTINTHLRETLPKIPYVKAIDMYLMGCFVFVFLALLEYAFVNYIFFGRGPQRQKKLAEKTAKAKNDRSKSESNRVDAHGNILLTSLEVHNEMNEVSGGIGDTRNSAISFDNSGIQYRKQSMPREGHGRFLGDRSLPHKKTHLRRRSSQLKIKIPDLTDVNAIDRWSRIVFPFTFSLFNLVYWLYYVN

Row | Structure (SMILES) | Emax at 0.1 µM [1] | further results
1 | COc1cccc(F)c1-c1cccn2c(N)c(C(=O)NCCO)nc12 [Example 22, 3-Amino-8-(2-fluoro-6-methoxyphenyl)-N-(2-hydroxyethyl)imidazo[1,2-a]pyridine-2-carboxamide] | 25% | –
2 | CCCNC(=O)c1nc2c(-c3c(F)ccc(Cl)c3OC)cccn2c1N [Example 80, 3-Amino-8-(2-fluoro-6-methoxyphenyl-5-chloro)-N-propylimidazo[1,2-a]pyridine-2-carboxamide] | 77% | –
3 | CCCNC(=O)c1nc2c(-c3cc4cccnc4cc3OC)cccn2c1N [Example 97, 3-Amino-8-(7-methoxyquinolin-6-yl)-N-propylimidazo[1,2-a]pyridine-2-carboxamide] | 52% | –
4 | CCCNC(=O)c1nc2c(-c3c(F)cccc3OC)c(C)ccn2c1N [Example 132, 3-Amino-8-(2-fluoro-6-methoxyphenyl)-7-methyl-N-propylimidazo[1,2-a]pyridine-2-carboxamide] | 48% | –
5 | COc1cccc(F)c1-c1cccn2c(N)c(C(=O)Nc3ccccn3)nc12 [Example 14, 3-Amino-8-(2-fluoro-6-methoxyphenyl)-N-(pyridin-2-yl)imidazo[1,2-a]pyridine-2-carboxamide] | 54% | –
6 | CCCNC(=O)c1nc2c(-c3c(C#N)cccc3OC)cccn2c1N [Example 73, 3-Amino-8-(2-cyano-6-methoxyphenyl)-N-propylimidazo[1,2-a]pyridine-2-carboxamide] | 64% | –
7 | [2H]c1cc(-c2c(F)cccc2OC)c2nc(C(=O)NCCC)c(N)n2c1 [Example 154, 3-Amino-8-(2-fluoro-6-methoxyphenyl)-N-propylimidazo[1,2-a]pyridine-6-deuterio-2-carboxamide] | – | α2-GABAAR Positive allosteric modulatory activity [1]: 84%
8 | CCCNC(=O)c1nc2c(-c3cccnc3C)cccn2c1N [Example 142, 3-Amino-8-(2-methylpyridin-3-yl)-N-propylimidazo[1,2-a]pyridine-2-carboxamide] | 45% | –
9 | CCCNC(=O)c1nc2c(-c3cncc(C)c3)cccn2c1N [Example 87, 3-Amino-8-(5-methylpyridin-3-yl)-N-propylimidazo[1,2-a]pyridine-2-carboxamide] | 48% | –
10 | CCCNC(=O)c1nc2c(-c3c(F)cccc3COC)cccn2c1N [Example 65, 3-Amino-8-(2-fluoro-6-(methoxymethyl)phenyl)-N-propylimidazo[1,2-a]pyridine-2-carboxamide] | 36% | –
11 | CCCNC(=O)c1nc2c(-c3c(F)cccc3SC)cccn2c1N [Example 74, 3-Amino-8-(2-fluoro-6-(methylthio)phenyl)-N-propylimidazo[1,2-a]pyridine-2-carboxamide] | 73% | –
12 | CCCNC(=O)c1nc2c(-c3cc(OC)nnc3OC)c(F)ccn2c1N [Example 117, 3-Amino-8-(3,6-dimethoxypyridazin-4-yl)-7-fluoro-N-propylimidazo[1,2-a]pyridine-2-carboxamide] | 88% | –
13 | CCCNC(=O)c1nc2c(-c3cc(F)cc(F)c3)c(F)ccn2c1N [Example 113, 3-Amino-8-(3,5-difluorophenyl)-7-fluoro-N-propylimidazo[1,2-a]pyridine-2-carboxamide] | 49% | –
14 | COc1cccc(F)c1-c1cccn2c(N)c(C(=O)NCCc3ccccc3)nc12 [Example 21, 3-Amino-8-(2-fluoro-6-methoxyphenyl)-N-phenethylimidazo[1,2-a]pyridine-2-carboxamide] | 43% | –
15 | CCCCNC(=O)c1nc2c(-c3c(F)cccc3OC)c(F)ccn2c1N [Example 124, 3-Amino-N-butyl-7-fluoro-8-(2-fluoro-6-methoxyphenyl)imidazo[1,2-a]pyridine-2-carboxamide] | 90% | –
16 | CCCNC(=O)c1nc2c(-c3c(F)ccc4ccc(OC)cc34)cccn2c1N [Example 108, 3-Amino-8-(2-fluoro-7-methoxynaphthalen-1-yl)-N-propylimidazo[1,2-a]pyridine-2-carboxamide] | 50% | –

Row | Structure (SMILES) | Emax at 0.1 µM [1] | further results
17 | CCCNC(=O)c1nc2c(-c3cccc(-c4ccnnc4)c3)cccn2c1N [Example 44] | 31% | –
18 | COc1cccc(F)c1-c1cccn2c(N)c(C(=O)Nc3cnn(C)c3)nc12 [Example 15, 3-Amino-8-(2-fluoro-6-methoxyphenyl)-N-(1-methyl-1H-pyrazol-4-yl)imidazo[1,2-a]pyridine-2-carboxamide] | 61% | –
19 | CCCNC(=O)c1nc2c(-c3cccnc3OC)c(F)ccn2c1N [Example 115, 3-Amino-7-fluoro-8-(2-methoxypyridin-3-yl)-N-propylimidazo[1,2-A]pyridine-2-carboxamide] | 123% | –
20 | CCCNC(=O)c1nc2c(-c3c(C#N)cccc3OC)c(F)ccn2c1N [Example 118, 3-Amino-8-(2-cyano-6-methoxyphenyl)-7-fluoro-N-propylimidazo[1,2-a]pyridine-2-carboxamide] | 51% | –
21 | CCCNC(=O)c1nc2c(-c3c(F)ccc4c3OCC4)cccn2c1N [Example 106, 3-Amino-8-(6-fluoro-2,3-dihydrobenzofuran-7-yl)-N-propylimidazo[1,2-a]pyridine-2-carboxamide] | 100% | –
22 | CCCNC(=O)c1nc2c(-c3cnccc3OC)c(F)ccn2c1N [Example 114, 3-Amino-7-fluoro-8-(4-methoxypyridin-3-yl)-N-propylimidazo[1,2-a]pyridine-2-carboxamide] | 124% | –
23 | COc1cccc(F)c1-c1cccn2c(N)c(C(=O)NCCCO)nc12 [Example 23, 3-Amino-8-(2-fluoro-6-methoxyphenyl)-N-(3-hydroxypropyl)imidazo[1,2-a]pyridine-2-carboxamide] | 57% | –
24 | CCCNC(=O)c1nc2c(-c3cc4ncoc4cc3F)cccn2c1N [Example 98] | – | α2-GABAAR Positive allosteric modulatory activity [1]: 64%
25 | CCCNC(=O)c1nc2c(CC(C)C)cccn2c1N [Example 143, 3-Amino-8-isobutyl-N-propylimidazo[1,2-a]pyridine-2-carboxamide hydrochloride] | – | Emax at 0.1 µM: 48%
26 | COCCNC(=O)c1nc2c(-c3c(F)cccc3OC)cccn2c1N [Example 24, 3-Amino-8-(2-fluoro-6-methoxyphenyl)-N-(2-methoxyethyl)imidazo[1,2-a]pyridine-2-carboxamide] | 39% | –
27 | CCCNC(=O)c1nc2c(-c3cc4c(cc3OC)N(C)CCO4)cccn2c1N [Example 92, 3-Amino-8-(6-methoxy-4-methyl-3,4-dihydro-2H-benzo[b][1,4]oxazin-7-yl)-N-propylimidazo[1,2-a]pyridine-2-carboxamide] | 33% | –
28 | CCCNC(=O)c1nc2c(-c3c(F)ccc4ccoc34)cccn2c1N [Example 101, 3-Amino-8-(6-fluorobenzofuran-7-yl)-N-propylimidazo[1,2-a]pyridine-2-carboxamide] | 112% | –
29 | CCCNC(=O)c1nc2c(-c3cc4cnn(C)c4cc3OC)cccn2c1N [Example 95, 3-Amino-8-(6-methoxy-1-methyl-1H-indazol-5-yl)-N-propylimidazo[1,2-a]pyridine-2-carboxamide] | 27% | –
30 | CCCNC(=O)c1nc2c(-c3c(F)cccc3OC)c(Cl)ccn2c1N [Example 130, 3-Amino-7-chloro-8-(2-fluoro-6-methoxyphenyl)-N-propylimidazo[1,2-a]pyridine-2-carboxamide] | 53% | –
31 | CCCNC(=O)c1nc2c(-c3cnc(OC)nc3OC)cccn2c1N [Example 81, 3-Amino-8-(2,4-dimethoxypyrimidin-5-yl)-N-propylimidazo[1,2-a]pyridine-2-carboxamide] | 48% | –
